Assay [1] has as its target Troponin, cardiac muscle (Homo sapiens, UniProt P19429+P45379+P63316). Nature of the assay: Fluorescence-based biochemical high throughput dose response assay for activators of the calcium sensitivity of cardiac Regulated Thin Filaments (RTF). [Related pubchem assays (depositor defined):AID493008, AID493018, AID504382, AID504383]. It counts as protein-complex assay.
Assay [2] deals with T1, Tyrosine-protein phosphatase non-receptor type 22 (Homo sapiens, UniProt Q9Y2R2).
T1 sequence (Q9Y2R2 whole entry): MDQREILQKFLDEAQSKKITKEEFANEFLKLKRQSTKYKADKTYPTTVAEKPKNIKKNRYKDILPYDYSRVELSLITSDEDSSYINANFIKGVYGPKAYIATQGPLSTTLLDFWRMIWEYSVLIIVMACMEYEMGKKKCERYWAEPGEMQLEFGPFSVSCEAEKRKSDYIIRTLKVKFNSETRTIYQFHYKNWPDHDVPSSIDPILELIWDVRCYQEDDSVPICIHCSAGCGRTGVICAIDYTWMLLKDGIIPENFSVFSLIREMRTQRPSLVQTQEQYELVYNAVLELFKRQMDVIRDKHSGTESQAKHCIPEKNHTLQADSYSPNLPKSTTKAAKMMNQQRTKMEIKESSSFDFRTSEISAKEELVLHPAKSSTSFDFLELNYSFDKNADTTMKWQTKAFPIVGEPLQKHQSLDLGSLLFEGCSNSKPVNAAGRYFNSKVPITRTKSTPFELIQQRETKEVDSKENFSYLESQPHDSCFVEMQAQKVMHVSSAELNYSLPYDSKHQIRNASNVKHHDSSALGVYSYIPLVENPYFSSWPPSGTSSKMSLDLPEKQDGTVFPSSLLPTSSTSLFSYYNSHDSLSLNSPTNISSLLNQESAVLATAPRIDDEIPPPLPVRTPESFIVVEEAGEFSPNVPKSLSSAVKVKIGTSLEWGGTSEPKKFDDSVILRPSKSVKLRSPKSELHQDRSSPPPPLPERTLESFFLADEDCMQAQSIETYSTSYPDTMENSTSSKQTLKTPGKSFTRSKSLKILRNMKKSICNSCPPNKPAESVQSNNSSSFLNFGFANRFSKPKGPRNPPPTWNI
Type of assay: functional.

For assay [3], the target named is T1, Tyrosine-protein phosphatase non-receptor type 22. It counts as functional. The source holds these as a separate data set.
In assay [4] the target is T2, Tyrosine-protein phosphatase non-receptor type 7 (Homo sapiens, UniProt P35236).
T2 sequence (P35236 whole entry): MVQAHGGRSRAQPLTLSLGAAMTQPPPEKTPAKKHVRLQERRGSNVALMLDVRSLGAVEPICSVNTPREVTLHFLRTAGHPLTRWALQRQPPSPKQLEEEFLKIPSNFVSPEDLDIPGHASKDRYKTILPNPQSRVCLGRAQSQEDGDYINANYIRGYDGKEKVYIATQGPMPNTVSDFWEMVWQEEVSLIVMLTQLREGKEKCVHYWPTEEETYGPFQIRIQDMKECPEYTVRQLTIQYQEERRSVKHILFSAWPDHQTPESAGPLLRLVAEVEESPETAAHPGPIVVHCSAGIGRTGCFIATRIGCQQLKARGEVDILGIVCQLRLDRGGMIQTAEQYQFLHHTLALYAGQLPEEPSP
Type of assay: functional.

The target of assay [5] is G-protein coupled receptor 55 (Homo sapiens, UniProt Q9Y2T6). Nature of the assay: inhibition of LPI-stimulated GPR55 beta-arrestin translocation – imaging, U2OS, beta-arrestin-GFP, LPI agonist, primary screen (AID 2013).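 Also: antagonist potency measured as reduced agonist-driven arrestin aggregation.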 Type of assay: functional.
Assay [6] is described as follows: viability of PTEN-deleted HCT116 cells – cell-based, HCT116 PTEN knockout, dose response (AID 1047).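 Also: HCT116 colon tumor cells with PTEN knocked out; cells exposed to compound for 60 hours before readout; potency for loss of cell viability measured by luminescence.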 Type of assay: functional.
Assay [7] addresses T3, SUMO-activating enzyme (Homo sapiens, UniProt Q9UBT2). Nature of the assay: blockers of SAE1/SAE2–UBC9 SUMO transfer – biochemical, HTRF, uHTS, primary screen (AID 2006). Type of assay: protein-complex assay. (In TR-FRET formats the signal depends on donor and acceptor labels being close together.)
Assay [8] relates to Vero. Nature of the assay: cells. Particulars: Chlorocebus sabaeus. Type of assay: functional.
The target of assay [9] is Eukaryotic translation initiation factor 4E (Mus musculus, UniProt P63073). Nature of the assay: blockers of eIF4G binding by eIF4E – biochemical, TR-FRET, dose response (AID 855).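 Also: potency for disrupting eIF4E binding to eIF4GI seen as loss of FRET.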 It counts as functional.
A short description of assay [10]: Luminescence Cell-Based Dose Retest to Confirm Inhibitors of Cancer Stem Cells. [Related pubchem assays (depositor defined):AID2717, AID2721]. Type of assay: functional. Particulars: Homo sapiens.
In assay [11] the target is T3, SUMO-activating enzyme. Nature of the assay: blockers of UBC9-mediated SUMO conjugation – biochemical, AlphaScreen, SUMOylation inhibitor project, confirmation (AID 2018). Type of assay: functional. Background: In Alpha technology, singlet oxygen from a donor bead excites a nearby acceptor bead.
Assay [12] in a line: cells.
Assay [13] addresses Induced myeloid leukemia cell differentiation protein Mcl-1 (Homo sapiens, UniProt Q07820). Type of assay: functional.
Assay [14] in a line: viability of HCT116 lacking mutant beta-catenin – cell-based, human colon tumor, dose response (AID 1045).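 Also: HCT116 colon tumor cells with beta catenin knocked out; cells exposed to compound for 60 hours.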 Type of assay: functional.
A short description of assay [15]: viability of uninfected HEp-2 cells – cell-based, HTS, cytotoxicity control for RSV inhibitor project, dose response (AID 2410). It counts as functional. Particulars: human respiratory syncytial virus.
The target in assay [16] is T4, Rac GTPase-activating protein 1 (Homo sapiens, UniProt Q9H0H5).
T4 sequence (Q9H0H5 whole entry): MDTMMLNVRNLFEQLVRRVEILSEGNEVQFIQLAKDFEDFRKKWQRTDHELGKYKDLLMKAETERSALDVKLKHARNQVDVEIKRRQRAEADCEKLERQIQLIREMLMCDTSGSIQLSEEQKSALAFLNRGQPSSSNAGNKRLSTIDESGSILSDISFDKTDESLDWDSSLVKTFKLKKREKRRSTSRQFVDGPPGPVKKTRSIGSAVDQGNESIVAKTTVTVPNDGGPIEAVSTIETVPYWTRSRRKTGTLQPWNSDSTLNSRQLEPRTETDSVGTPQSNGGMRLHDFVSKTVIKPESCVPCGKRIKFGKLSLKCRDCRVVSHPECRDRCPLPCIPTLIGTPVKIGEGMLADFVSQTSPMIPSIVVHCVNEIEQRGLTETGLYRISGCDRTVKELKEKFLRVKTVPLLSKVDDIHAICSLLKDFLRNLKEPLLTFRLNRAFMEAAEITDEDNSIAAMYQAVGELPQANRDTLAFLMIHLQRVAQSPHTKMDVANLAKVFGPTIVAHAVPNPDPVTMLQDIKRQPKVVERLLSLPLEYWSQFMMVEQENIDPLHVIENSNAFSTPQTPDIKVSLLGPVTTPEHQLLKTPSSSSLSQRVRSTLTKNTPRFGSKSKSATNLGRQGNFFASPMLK
Nature of the assay: blockers of MgcRacGAP-driven Rac1 GTP hydrolysis – biochemical, ADP Hunter fluorescence, primary and confirmatory, confirmation (AID 624330). Type of assay: functional.

Assay [17] concerns the target T5, Voltage-gated N-type calcium channel alpha-1B subunit/Amyloid beta A4 precursor protein-binding family A member 1 (Homo sapiens, UniProt Q00975+Q02410). It counts as protein assay.
Assay [18] concerns the target T5, Voltage-gated N-type calcium channel alpha-1B subunit/Amyloid beta A4 precursor protein-binding family A member 1. Type of assay: protein assay. The source holds these as a separate data set.

Calls of active or inactive are those of the source.

As a reminder, the EC50 is the midpoint of the concentration-response curve. One may read the IC50 as the point on the concentration scale where inhibition reaches its midpoint. What is called CC50 is the concentration at which the toxic effect on the cells reaches its halfway point. What is called AC50 is the concentration giving half of the maximal activity seen.
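For AC50 in this document: cells exposed to compound for roughly 70 hours or longer before luminescence read.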

T3 sequence (Q9UBE0 whole entry): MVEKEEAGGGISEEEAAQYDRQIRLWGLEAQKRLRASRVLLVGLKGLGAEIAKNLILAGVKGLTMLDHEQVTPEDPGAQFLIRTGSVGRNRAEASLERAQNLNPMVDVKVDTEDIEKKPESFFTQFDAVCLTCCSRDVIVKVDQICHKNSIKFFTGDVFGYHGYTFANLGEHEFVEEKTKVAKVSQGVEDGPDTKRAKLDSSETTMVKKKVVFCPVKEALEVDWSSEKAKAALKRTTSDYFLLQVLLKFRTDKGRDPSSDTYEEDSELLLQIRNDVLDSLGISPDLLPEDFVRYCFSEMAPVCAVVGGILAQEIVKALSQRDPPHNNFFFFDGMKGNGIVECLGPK
T3 sequence (Q9UBT2 whole entry): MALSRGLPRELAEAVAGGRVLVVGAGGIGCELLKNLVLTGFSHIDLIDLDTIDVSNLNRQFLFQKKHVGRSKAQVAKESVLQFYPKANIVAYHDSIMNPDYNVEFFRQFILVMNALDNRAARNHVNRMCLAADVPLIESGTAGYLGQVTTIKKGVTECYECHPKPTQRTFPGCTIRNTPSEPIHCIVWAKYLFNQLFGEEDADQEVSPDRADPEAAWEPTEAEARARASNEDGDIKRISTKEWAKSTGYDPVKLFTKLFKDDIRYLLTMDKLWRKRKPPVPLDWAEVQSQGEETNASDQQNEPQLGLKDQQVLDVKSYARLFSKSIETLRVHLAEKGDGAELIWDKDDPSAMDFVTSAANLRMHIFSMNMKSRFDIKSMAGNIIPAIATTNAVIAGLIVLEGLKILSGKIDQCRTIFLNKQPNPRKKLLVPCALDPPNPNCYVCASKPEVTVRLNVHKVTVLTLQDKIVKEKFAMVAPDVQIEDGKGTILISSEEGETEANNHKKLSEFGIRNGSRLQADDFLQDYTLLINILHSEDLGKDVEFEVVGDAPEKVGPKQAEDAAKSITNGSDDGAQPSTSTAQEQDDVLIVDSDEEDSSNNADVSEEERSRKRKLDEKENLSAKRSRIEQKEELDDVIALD
Sequence of G-protein coupled receptor 55 (Q9Y2T6 whole entry): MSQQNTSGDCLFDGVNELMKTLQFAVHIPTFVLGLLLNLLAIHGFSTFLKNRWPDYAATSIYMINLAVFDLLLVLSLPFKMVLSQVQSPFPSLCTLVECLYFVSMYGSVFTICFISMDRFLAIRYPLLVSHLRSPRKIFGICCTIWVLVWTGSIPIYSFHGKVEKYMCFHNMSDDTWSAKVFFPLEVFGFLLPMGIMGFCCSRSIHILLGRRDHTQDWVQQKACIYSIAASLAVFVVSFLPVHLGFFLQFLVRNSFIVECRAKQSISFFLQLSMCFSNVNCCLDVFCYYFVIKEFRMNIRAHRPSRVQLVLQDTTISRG
T5 sequence (Q00975 whole entry): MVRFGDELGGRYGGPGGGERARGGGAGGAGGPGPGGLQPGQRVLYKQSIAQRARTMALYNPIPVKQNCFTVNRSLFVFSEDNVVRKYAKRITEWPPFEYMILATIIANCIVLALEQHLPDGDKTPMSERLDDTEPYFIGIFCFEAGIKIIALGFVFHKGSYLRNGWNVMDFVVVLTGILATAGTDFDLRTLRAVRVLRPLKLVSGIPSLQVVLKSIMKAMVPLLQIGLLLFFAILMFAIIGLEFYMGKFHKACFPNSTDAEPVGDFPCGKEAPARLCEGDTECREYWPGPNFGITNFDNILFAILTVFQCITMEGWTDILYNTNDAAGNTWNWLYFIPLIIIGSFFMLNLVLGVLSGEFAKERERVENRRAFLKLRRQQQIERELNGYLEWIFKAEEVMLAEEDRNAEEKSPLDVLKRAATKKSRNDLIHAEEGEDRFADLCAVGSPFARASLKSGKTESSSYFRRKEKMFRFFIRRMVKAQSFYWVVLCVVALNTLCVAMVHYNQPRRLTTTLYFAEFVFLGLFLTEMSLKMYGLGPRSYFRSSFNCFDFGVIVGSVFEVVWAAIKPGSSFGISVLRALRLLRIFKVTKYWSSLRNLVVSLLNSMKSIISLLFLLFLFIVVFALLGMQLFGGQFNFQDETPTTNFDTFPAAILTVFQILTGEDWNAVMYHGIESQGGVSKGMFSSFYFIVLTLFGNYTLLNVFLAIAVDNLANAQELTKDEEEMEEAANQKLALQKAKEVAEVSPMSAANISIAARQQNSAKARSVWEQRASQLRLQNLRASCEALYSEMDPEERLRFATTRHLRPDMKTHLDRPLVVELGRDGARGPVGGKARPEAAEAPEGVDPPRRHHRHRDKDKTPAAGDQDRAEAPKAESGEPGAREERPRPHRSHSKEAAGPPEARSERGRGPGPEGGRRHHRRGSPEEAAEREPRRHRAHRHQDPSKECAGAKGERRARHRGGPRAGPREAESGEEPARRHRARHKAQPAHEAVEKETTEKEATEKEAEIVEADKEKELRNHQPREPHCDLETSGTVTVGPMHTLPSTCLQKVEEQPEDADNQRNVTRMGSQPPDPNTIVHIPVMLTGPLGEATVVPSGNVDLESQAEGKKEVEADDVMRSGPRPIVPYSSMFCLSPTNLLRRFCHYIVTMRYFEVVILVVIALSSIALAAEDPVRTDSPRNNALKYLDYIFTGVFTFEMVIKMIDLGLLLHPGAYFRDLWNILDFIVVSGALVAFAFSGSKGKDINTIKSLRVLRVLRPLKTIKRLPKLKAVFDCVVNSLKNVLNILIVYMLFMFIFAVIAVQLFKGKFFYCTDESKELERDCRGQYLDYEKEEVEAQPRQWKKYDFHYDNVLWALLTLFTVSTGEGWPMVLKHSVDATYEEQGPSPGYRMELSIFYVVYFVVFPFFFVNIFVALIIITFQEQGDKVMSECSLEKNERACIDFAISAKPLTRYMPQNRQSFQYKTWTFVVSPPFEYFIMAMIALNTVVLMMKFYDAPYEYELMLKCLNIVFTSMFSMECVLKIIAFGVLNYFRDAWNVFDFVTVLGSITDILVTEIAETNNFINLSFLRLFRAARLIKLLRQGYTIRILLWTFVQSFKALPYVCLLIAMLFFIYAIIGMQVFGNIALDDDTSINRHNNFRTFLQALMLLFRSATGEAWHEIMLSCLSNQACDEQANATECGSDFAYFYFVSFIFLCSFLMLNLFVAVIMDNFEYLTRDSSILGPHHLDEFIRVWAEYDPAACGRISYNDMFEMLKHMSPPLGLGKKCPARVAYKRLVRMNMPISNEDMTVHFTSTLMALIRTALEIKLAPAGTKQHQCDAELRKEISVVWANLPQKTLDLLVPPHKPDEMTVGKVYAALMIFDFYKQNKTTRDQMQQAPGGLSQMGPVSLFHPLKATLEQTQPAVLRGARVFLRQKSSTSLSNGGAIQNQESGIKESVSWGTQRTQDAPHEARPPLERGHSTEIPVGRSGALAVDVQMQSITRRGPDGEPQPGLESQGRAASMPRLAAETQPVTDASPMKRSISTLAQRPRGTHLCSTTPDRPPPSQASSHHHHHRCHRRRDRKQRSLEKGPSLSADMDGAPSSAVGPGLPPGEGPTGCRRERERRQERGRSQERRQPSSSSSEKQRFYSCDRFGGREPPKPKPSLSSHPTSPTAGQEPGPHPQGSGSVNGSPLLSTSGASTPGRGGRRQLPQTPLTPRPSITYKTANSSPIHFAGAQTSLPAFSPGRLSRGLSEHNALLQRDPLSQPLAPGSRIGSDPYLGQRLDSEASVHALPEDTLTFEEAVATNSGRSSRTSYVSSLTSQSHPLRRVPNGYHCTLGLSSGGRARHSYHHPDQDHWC
T5 sequence (Q02410 whole entry): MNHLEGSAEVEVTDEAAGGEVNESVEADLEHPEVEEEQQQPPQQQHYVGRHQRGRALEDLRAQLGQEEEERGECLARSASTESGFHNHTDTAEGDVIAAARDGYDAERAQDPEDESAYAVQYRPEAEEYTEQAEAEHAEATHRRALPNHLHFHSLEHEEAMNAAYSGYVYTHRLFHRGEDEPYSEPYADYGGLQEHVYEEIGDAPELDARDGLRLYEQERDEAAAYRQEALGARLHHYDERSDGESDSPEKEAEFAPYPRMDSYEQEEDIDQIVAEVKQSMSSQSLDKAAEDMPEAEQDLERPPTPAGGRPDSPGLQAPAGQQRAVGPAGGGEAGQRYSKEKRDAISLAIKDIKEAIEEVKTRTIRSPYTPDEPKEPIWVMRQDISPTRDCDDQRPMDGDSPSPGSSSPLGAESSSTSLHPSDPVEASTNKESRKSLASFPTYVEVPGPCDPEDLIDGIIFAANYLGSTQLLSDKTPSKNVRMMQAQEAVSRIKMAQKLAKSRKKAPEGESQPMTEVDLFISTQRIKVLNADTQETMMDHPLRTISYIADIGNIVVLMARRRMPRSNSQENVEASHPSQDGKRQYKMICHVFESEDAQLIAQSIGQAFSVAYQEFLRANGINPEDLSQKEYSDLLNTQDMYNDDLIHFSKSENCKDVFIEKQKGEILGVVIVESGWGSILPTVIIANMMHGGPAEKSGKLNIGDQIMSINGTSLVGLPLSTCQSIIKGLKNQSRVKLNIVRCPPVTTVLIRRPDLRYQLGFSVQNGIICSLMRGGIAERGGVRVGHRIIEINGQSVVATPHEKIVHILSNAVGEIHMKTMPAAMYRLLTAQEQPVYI
Sequence of Eukaryotic translation initiation factor 4E (P63073 whole entry): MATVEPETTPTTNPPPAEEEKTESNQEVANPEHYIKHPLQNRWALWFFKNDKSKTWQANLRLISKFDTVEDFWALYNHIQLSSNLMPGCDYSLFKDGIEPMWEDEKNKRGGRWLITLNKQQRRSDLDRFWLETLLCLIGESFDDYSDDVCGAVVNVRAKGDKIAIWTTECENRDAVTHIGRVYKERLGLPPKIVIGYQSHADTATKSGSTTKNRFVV
Sequence of Induced myeloid leukemia cell differentiation protein Mcl-1 (Q07820 whole entry): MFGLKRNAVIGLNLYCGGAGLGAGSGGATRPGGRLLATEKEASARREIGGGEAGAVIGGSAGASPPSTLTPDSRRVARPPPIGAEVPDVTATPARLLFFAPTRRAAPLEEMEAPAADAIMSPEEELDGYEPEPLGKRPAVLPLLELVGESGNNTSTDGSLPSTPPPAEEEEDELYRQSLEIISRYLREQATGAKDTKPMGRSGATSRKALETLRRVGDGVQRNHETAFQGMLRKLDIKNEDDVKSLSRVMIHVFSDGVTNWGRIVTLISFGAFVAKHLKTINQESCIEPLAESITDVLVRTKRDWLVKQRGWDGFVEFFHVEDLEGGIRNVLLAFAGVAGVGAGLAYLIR

For `c1ccc(Cn2c(-c3ccccc3)nc3nc4ccccc4nc32)cc1`, in [1], the EC50 is > 71.5 µM (inactive).
For `Cc1cc2ncc(Cl)nc2cc1C`, the IC50 in [2], in assay [3] and in [4] was > 79.4 µM (inactive) in each case.
Turning to `CC(C)(C)c1ccc(CN2C(=O)CN=C(c3ccccc3)c3ccccc32)cc1`, in assay [5], the IC50 is 3.35 µM (active).
With `COc1ccc(OCC(=O)N/N=C/c2ccc(OC)c(OC)c2C(=O)O)cc1`, the IC50 in assay [2], in [3] and in assay [4] was > 79.4 µM (inactive) throughout.
In the case of `COc1cc2c(-c3ccc(O)cc3)nc3c(c(C)nn3-c3ccccc3)c2cc1OC`, the concentration giving a half-maximal response (EC50) in assay [6] is 9.2 µM (active); in assay [14] it was 8.96 µM (active). Moreover, the IC50 is 7.67 µM (active) in assay [7]; 53.5 µM (inactive) in [9]; 2.06 µM (active) in [11]; 19.1 µM (active) in assay [12]; < 0.4 µM (active) in assay [13]. In addition, the CC50 was 19.7 µM (active) in assay [8] and 9.63 µM (active) in assay [15]. For the same molecule, the AC50 in [10] is 1.23 µM (active).
For the molecule `Cc1cc(O)ccc1C1(c2ccc(O)cc2C)OC(=O)c2ccccc21`, the IC50 in assay [5] is 3.46 µM (active).
As to `O=[N+]([O-])c1cc([N+](=O)[O-])c2nonc2c1Nc1ccc(O)cc1`, the IC50 is > 100 µM (inactive) in assay [7] and 56.8 µM (active) in assay [16].
On to `CC(=O)N(C)c1ccc(C(O)(C(F)(F)F)C(F)(F)F)cc1`, for which the EC50 in assay [1] is > 71.5 µM (inactive).
On to `O=C(NCCO)c1cc(-c2cc(C(=O)NCCO)c3ccccc3n2)nc2ccccc12`, for which the half-maximal inhibitory concentration (IC50) is 6.83 µM (active) in assay [17] and > 50 µM (inactive) in [18].
